# Laboratory results reported in US20210361706A1 (priority 2018, published 2021).
# Where two headings read alike, the source gives them in different places.
# Experiments:
# EO771 tumor [1] = type: in vivo, C57BL/6JNarl female mice; details: for survival rate: twice CTX, FIG. 1B
# Method: The syngeneic orthotopic EO771 breast cancer mouse model (see Johnstone et al., Disease models & mechanisms, 8(3):237-251 (2015)) was used to evaluate the in vivo treatment efficacy.
# C57BL/6JNarl female mice were purchased from National Laboratory Animal Center, Taiwan and housed under specific pathogenic-free condition in the animal facility of Institute of Molecular Biology, Academia Sinica, Taiwan. Mice were used between 8-to-12-week-old.
# EO771 cell line (CH3 BioSystems) were cultured in complete medium (RPMI 1640 (Gibco) supplemented with 20 mM pH7.2 HEPES (Sigma-Aldrich), 10% fetal bovine serum (FBS; HyClone) and 1% Penicillin and Streptomycin (PS; Gibco)). B16-F10 melanoma was provided by Dr. Roffler, Steve R. (Institute of Biomedical Sciences, Academia Sinica, Taiwan) and cultured in complete medium (DMEM (Gibco) supplemented with 10% FBS (HyClone) and 1% PS (Gibco)). Tumor cells were cultured at 37° C. incubator with 5% CO2.
# Bone marrow (BM) cells were obtained from Tibias and femurs. Red blood cells were lysed by ACK lysis buffer (0.15 M NH4Cl, 10 mM NaHCO3, 1 mM disodium EDTA (pH 7.4)). The BM cells were cultured in 10% FBS RPMI medium containing rmIL-15 for 7 days, and IL-12 was added 16 hours before harvesting. The harvested BM cells were stained with antibodies specific for CD19, H57, NK1.1, CD11 c and B220, and sorted for CD11c^+B220^+ NK cells using FACSAriaII SORP (BD Biosciences; FACS Core, Institute of Molecular Biology, Academia Sinica, Taiwan).
# CTX was administrated on day-21 post tumor inoculation. The twice CTX-treatment group received the second CTX injection 6 days after the first treatment. Phosphate-buffered saline (PBS) was used as a negative control.
# First, the effects of CTX monotherapy, NK monotherapy, or CTX and NK cell combined therapy on EO771 tumor-bearing mice were examined, following the assays described in Example 1 above. The treatment started on day-21 post tumor inoculation. […] FIG. 2. […] FIG. 2.
# EO771 tumor [2] = type: in vivo, C57BL/6JNarl female mice
# Source text: Next, the effect of CTX monotherapy and CTX/NK cell combined therapy were examined in an EO771 tumor resection mouse model, which mimics patients whose tumor was surgically removed.
# Tumor and draining lymph node were resected on day-21 post tumor inoculation, and CTX alone or in combination with NK cells were started two days after the resection. […] FIG. 4. […] FIG. 4. […] FIG. 4. […]
# EO771 cells [3] = type: in vivo, C57BL/6JNarl female mice; details: tumor-resected mice
# Source text: Following the assays described in Example 1 above, it was examined in this Example whether CTX monotherapy and CTX/NK cell combined therapy would induce protective immune memory under tumor-resected condition. Mice survived after the treatment of primary EO771 tumor were re-challenged with EO771 cells. […] FIG. 5. […] FIG. 5.
# EO771 cells [4] = assay: EO771 re-challenge of tumor-bearing mice that survived the primary tumor after treatment
# Method: The orthotopic syngeneic TMBC model was done by injection of EO771 cells into the 4th mammary fat pad of C57BL/6JNarl female mice. For the tumor-bearing model, each mouse was inoculated with 0.5×10^6 cells and received the first intra-peritoneal injection of CTX after 21 days. The second CTX injection was given 6 days later. Sorted CD11c^+B220^+ NK cells were transferred intravenously around 24 hours after the second CTX treatment, and followed with another NK cell transfer 3-4 days later. For the tumor-resect model, each mouse was inoculated with 0.3×10^6 EO771 cells, and the tumor and draining lymph node were resected 21 days later. CTX/NK treatment started at 48 hours after resection as described in the tumor-bearing model. […] The mice were monitored for survival, body weight, and tumor volume.
# Kaplan-Meier survival analyses were performed using GraphPad Prism 7, and the Log-rank test was used to determine significance. Cox proportional hazard model was used to analyze hazard ratio and interaction [24]. P-value≤0.05 was considered statistically significant (*p≤0.05, **p≤0.01, ***p≤0.001, ****p≤0.0001).
# To determine whether CTX/NK cell combined therapy would prevent or reduce the risk of tumor recurrence, mice who survived the primary tumor after the treatment were re-challenged with the same tumor cells to mimic cancer recurrence.
# The cure rate was estimated by multiplying the primary and re-challenge survival rates.
# [5] = tumor-bearing model, reference: no treatment
# [6] = tumor-resection model, reference: no treatment (resection only)
# [7] = primary survival rate × survival rate after EO771 re-challenge
compound,measurement,setting,value
"O=P1(N(CCCl)CCCl)NCCCO1 (stereo not shown) [CTX, cyclophosphamide]",mice survived for at least 120 days,"EO771 tumor [1]; CTX once, 150 mg/kg per injection, day-21 post tumor inoculation, FIG. 1A",1 out of 8
same,mice survived for at least 120 days,"EO771 tumor [1]; CTX twice, 6 days apart, 150 mg/kg per injection, from day 21, FIG. 1A",5 out of 8
same,mice survived for at least 120 days,"EO771 tumor [1]; treatment started on day-21 post tumor inoculation, FIG. 2",62%
same,Primary survival rate % (live/total),"EO771 tumor [1]; tumor-bearing mice, survival post treatment in mice inoculated with tumor the first time",62 (46/74) %
same,"HR (95% CI), Frailty adjustment",EO771 tumor [1]; [5],"0.02 (0.009, 0.044)"
same,"HR (95% CI), cluster adjustment",EO771 tumor [1]; [5],"0.024 (0.009, 0.066)"
same,"HR (95% CI), without batch adjustment",EO771 tumor [1]; [5],"0.024 (0.012, 0.051)"
same,survival rate,"EO771 tumor [1]; 6 days apart, 125 mg/kg per injection",11%
same,survival rate,"EO771 tumor [1]; 6 days apart, 150 mg/kg per injection",62%
same,survival rate,"EO771 tumor [2]; tumor resected mice, treatment started two days after resection, FIG. 4",86%
same,Primary survival rate % (live/total),"EO771 tumor [2]; tumor-resected mice, survival post treatment in mice inoculated with tumor the first time",86 (49/57) %
same,"HR (95% CI), Frailty adjustment",EO771 tumor [2]; [6],"0.083 (0.036, 0.192)"
same,"HR (95% CI), cluster adjustment",EO771 tumor [2]; [6],"0.086 (0.037, 0.201)"
same,"HR (95% CI), without batch adjustment",EO771 tumor [2]; [6],"0.086 (0.040, 0.186)"
same,Tumor-free rate after EO771 re-challenge % (live/total),EO771 cells [3],30 (7/23) %
same,estimated cure rate,EO771 cells [3]; EO771 primary and re-challenge survival rates,26%
same,survival after EO771 re-challenge,EO771 cells [3]; FIG. 5,30%
same,Estimated cure rate with immune protection (%),EO771 cells [3]; [7],26%
same,Survival rate after EO771 re-challenge % (live/total),EO771 cells [4],90 (26/29) %
same,survived at least 120 days after the EO771 re-challenge,EO771 cells [4]; FIG. 3,90%
same,Estimated cure rate with immune protection (%),EO771 cells [4]; [7],56%
same,estimated cure rate,EO771 cells [4]; primary × re-challenge survival rates,56%
